# Results from patent US6448442B1, “Contrast media” (Amersham Health AS, priority 1999, dated 2002).
# Values joined by “and” are separate entries in the source; they are usually repeats but may differ in a detail not shown here. Equal values may be shown once.
# Experiment: Viscosity in aqueous solution at 20° C. (Example 82, Tables 1 and 2)
# Type: physicochemical
# Settings: for Viscosity 350 mgI/ml (CALCULATED): calculated for 350 mgI/ml; for Viscosity at 400 mgI/ml (CALCULATED): calculated for 400 mgI/ml
# Procedure: The viscosities in aqueous solution at 20° C. for some further compounds described above were determined and are listed in Table 2. […]
# [1] = iodine concentration 370 mgI/mL
# [2] = iodine concentration 394 mgI/mL
compound,measurement,setting,value
"O=C(CO)Nc1c(I)c(CO)c(I)c(N(CCO)C(=O)CO)c1I [Example 5, N,N′-Bis(hydroxyacetyl)-N-(2-hydroxyethyl)-3,5-diamino-2,4,6-triiodobenzylalcohol]",Viscosity 350 mgI/ml (CALCULATED),,6.9 mPas
same,Viscosity at 400 mgI/ml (CALCULATED),,10.0 mPas
same,Viscosity 20° C.,concentration 435 mgI/ml,13 mPas
same,Viscosity 20° C.,concentration 512 mgI/ml,29 mPas
same,Viscosity,iodine concentration 435 mgI/mL,13 mPas
"O=C(CO)Nc1c(I)c(CO)c(I)c(N(CC(O)CO)C(=O)CO)c1I (stereo not drawn) [Example 7, N,N′-Bis(hydroxyacetyl)-N-(2,3-dihydroxypropyl)-3,5-diamino-2,4,6-triiodobenzylalcohol]",Viscosity at 400 mgI/ml (CALCULATED),,11.5 mPas
same,Viscosity 20° C.,concentration 361 mgI/ml,8 mPas
same,Viscosity,iodine concentration 361 mgI/mL,8.0 mPas
"CC(O)C(=O)Nc1c(I)c(CO)c(I)c(NC(=O)C(C)O)c1I (stereo not drawn) [Example 8, N,N′-Bis(2-hydroxypropionyl)-3,5-diamino-2,4,6-triiodobenzylalcohol]",Viscosity at 400 mgI/ml (CALCULATED),,11.0 mPas
same,Viscosity 20° C.,concentration 370 mgI/ml,8.3 mPas
same,Viscosity,[1],8.3 mPas
"CC(O)C(=O)Nc1c(I)c(CO)c(I)c(N(CC(O)CO)C(=O)C(C)O)c1I (stereo not drawn) [Example 11, N,N′-Bis(2-hydroxypropionyl)-N-(2,3-dihydroxypropyl)-3,5-diamino-2,4,6-triiodobenzylalcohol]",Viscosity at 400 mgI/ml (CALCULATED),,15 mPas
same,Viscosity 20° C.,concentration 409 mgI/ml,17 mPas
same,Viscosity,iodine concentration 407 mgI/mL,16 mPas
"O=C(Nc1c(I)c(CO)c(I)c(N(CCO)C(=O)C(O)CO)c1I)C(O)CO (stereo not drawn) [Example 13, N,N′-Bis(2,3-dihydroxypropionyl)-N-(2-hydroxyethyl)-3,5-diamino-2,4,6-triiodobenzylalcohol]",Viscosity at 400 mgI/ml (CALCULATED),,12.2 mPas
same,Viscosity 20° C.,concentration 398 mgI/ml,12 mPas
same,Viscosity,iodine concentration 398 mgI/mL,12 mPas
"O=C(C(O)CO)N(CCO)c1c(I)c(CO)c(I)c(N(CCO)C(=O)C(O)CO)c1I (stereo not drawn) [Example 14, N,N′-Bis(2,3-dihydroxypropionyl)-N,N-bis(2-hydroxyethyl)-3,5-diamino-2,4,6-triiodobenzylalcohol]",Viscosity at 400 mgI/ml (CALCULATED),,15.8 mPas
same,Viscosity 20° C.,concentration 373 mgI/ml,12.0 mPas
same,Viscosity,iodine concentration 373 mgI/mL,12 mPas
"O=C(Nc1c(I)c(CO)c(I)c(N(CC(O)CO)C(=O)C(O)CO)c1I)C(O)CO (stereo not drawn) [Example 15, N,N′-Bis(2,3-dihydroxypropionyl)-N-(2,3-dihydroxypropyl)-3,5-diamino-2,4,6-triiodobenzylalcohol]",Viscosity at 400 mgI/ml (CALCULATED),,17.8 mPas and 14.9 mPas
same,Viscosity 20° C.,concentration 291 mgI/ml,5.4 mPas
same,Viscosity 20° C.,concentration 384 mgI/ml,15 mPas
same,Viscosity 20° C.,concentration 394 mgI/ml,14 mPas
same,Viscosity,iodine concentration 348 mgI/mL,7.8 mPas
same,Viscosity,[2],14 mPas
same,Viscosity,iodine concentration 446 mgI/mL,22 mPas
same,Viscosity,iodine concentration 537 mgI/mL,75 mPas
"O=C(NCC(O)CO)c1c(I)c(CO)c(I)c(N(CC(O)CO)C(=O)CO)c1I (stereo not drawn) [Example 26, 5-[N′-(2,3-Dihydroxypropyl)-hydroxyacetamido]-3-hydroxymethyl-N-(2,3-dihydroxypropyl)-2,4,6-triiodobenzamide]",Viscosity 350 mgI/ml (CALCULATED),,9.4 mPas
same,Viscosity at 400 mgI/ml (CALCULATED),,15.1 mPas
same,Viscosity 20° C.,concentration 385 mgI/ml,13 mPas
same,Viscosity,iodine concentration 385 mgI/mL,13 mPas
"CC(O)C(=O)Nc1c(I)c(CO)c(I)c(C(=O)NCC(O)CO)c1I (stereo not drawn) [Example 27, 5-(2-Hydroxypropionylamino)-3-hydroxymethyl-N-(2,3-dihydroxypropyl)-2,4,6-triiodobenzamide]",Viscosity at 400 mgI/ml (CALCULATED),,12.5 mPas
same,Viscosity 20° C.,concentration 412 mgI/ml,14 mPas
same,Viscosity,iodine concentration 412 mgI/mL,14 mPas
"CC(O)C(=O)N(CCO)c1c(I)c(CO)c(I)c(C(=O)NCC(O)CO)c1I (stereo not drawn) [Example 28, 5-[N′-(2-Hydroxyethyl)-2-hydroxypropionylamino]-3-hydroxymethyl-N-(2,3-dihydroxypropyl)-2,4,6-triiodobenzamide]",Viscosity 350 mgI/ml (CALCULATED),,9.2 mPas
same,Viscosity at 400 mgI/ml (CALCULATED),,14.6 mPas
same,Viscosity 20° C.,concentration 404 mgI/ml,15 mPas
same,Viscosity,iodine concentration 404 mgI/mL,15 mPas
"O=C(NCC(O)CO)c1c(I)c(CO)c(I)c(N(CCO)C(=O)C(O)CO)c1I (stereo not drawn) [Example 30, 5-[N′-(2-Hydroxyethyl)-2,3-dihyroxypropionylamino]-3-hydroxymethyl-N-(2,3-dihydroxypropyl)-2,4,6-triiodobenzamide]",Viscosity 350 mgI/ml (CALCULATED),,13.4 mPas
same,Viscosity at 400 mgI/ml (CALCULATED),,23.3 mPas
same,Viscosity 20° C.,concentration 391 mgI/ml,21 mPas
same,Viscosity,iodine concentration 391 mgI/mL,21 mPas
"CC(CO)(CO)C(=O)Nc1c(I)c(CO)c(I)c(C(=O)NCC(O)CO)c1I (stereo not drawn) [Example 32, 5-(3-Hydroxy-2-methyl-2-hydroxymethyl-propionylamino)-3-hydroxymethyl-N-(2,3-dihydroxypropyl)-2,4,6-triiodobenzamide]",Viscosity at 400 mgI/ml (CALCULATED),,17.4 mPas
same,Viscosity 20° C.,concentration 403 mgI/ml,18 mPas
same,Viscosity,iodine concentration 403 mgI/mL,18 mPas
"O=C(NCC(O)CO)c1c(I)c(CO)c(I)c(NC(=O)C(CO)(CO)CO)c1I (stereo not drawn) [Example 33, 5-(3-Hydroxy-2,2-dihydroxymethyl-propionylamino)-3-hydroxymethyl-N-(2,3-dihydroxypropyl)-2,46-triiodobenzamide]",Viscosity at 400 mgI/ml (CALCULATED),,22.9 mPas
same,Viscosity 20° C.,concentration 370 mgI/ml,16 mPas
same,Viscosity,[1],16 mPas
"O=C(NC(CO)C(O)CO)c1c(I)c(CO)c(I)c(N(CCO)C(=O)CO)c1I (stereo not drawn) [Example 35, 5-[N′-(2-Hydroxyethyl)-hydroxyacetamido]-3-hydroxymethyl-N-(1,3,4-trihydroxybut-2-yl)-2,4,6-triiodobenzamide]",Viscosity 350 mgI/ml (CALCULATED),,9.6 mPas
same,Viscosity at 400 mgI/ml (CALCULATED),,15.5 mPas
same,Viscosity 20° C.,concentration 394 mgI/ml,15 mPas
same,Viscosity,[2],15 mPas
"O=C(NC(CO)C(O)CO)c1c(I)c(CO)c(I)c(N(CC(O)CO)C(=O)CO)c1I (stereo not drawn) [Example 36, 5-[N′-(2,3-Dihydroxypropyl)-hydroxyacetamido]-3-hydroxymethyl-N-(1,3 4-trihydroxybut-2-yl)-2,4.6-triiodobenzamide]",Viscosity 350 mgI/ml (CALCULATED),,10.6 mPas
same,Viscosity at 400 mgI/ml (CALCULATED),,17.7 mPas
same,Viscosity 20° C.,concentration 382 mgI/ml,15 mPas
same,Viscosity,iodine concentration 382 mgI/mL,15 mPas
"CC(O)C(=O)Nc1c(I)c(CO)c(I)c(C(=O)NC(CO)C(O)CO)c1I (stereo not drawn) [Example 37, 5-(2-Hydroxypropionylamino)-3-hydroxymethyl-N-(1,3,4-tri-hydroxybut-2-yl)-2,4,6-triiodobenzamide]",Viscosity at 400 mgI/ml (CALCULATED),,15.6 mPas
same,Viscosity 20° C.,concentration 398 mgI/ml,16 mPas
same,Viscosity 20° C.,concentration 458 mgI/ml,30 mPas
same,Viscosity,iodine concentration 458 mgI/mL,30 mPas
"O=C(NC(CO)C(O)CO)c1c(I)c(CO)c(I)c(N(CCO)C(=O)C(O)CO)c1I (stereo not drawn) [Example 39, 5-[N′-(2-Hydroxyethyl)-2,3-dihydroxypropionylamino]-3-hydroxymethyl-N-(1,3,4-trihydroxybut-2-yl)-2,4,6-triiodobenzamide]",Viscosity 350 mgI/ml (CALCULATED),,12.0 mPas
same,Viscosity at 400 mgI/ml (CALCULATED),,20.4 mPas
same,Viscosity 20° C.,concentration 372 mgI/ml,15 mPas
same,Viscosity,iodine concentration 372 mgI/mL,15 mPas
"O=C(c1c(I)c(CO)c(I)c(N(CCO)C(=O)CO)c1I)N(CCO)CCO [Example 41, 5-[N′-(2-Hydroxyethyl)-hydroxyacetamido]-3-hydroxymethyl-N,N-bis(2-hydroxyethyl)-2,4,6-triiodobenzamide]",Viscosity at 400 mgI/ml (CALCULATED),,12.0 mPas
same,Viscosity 20° C.,concentration 508 mgI/ml,40 mPas
"O=C(Nc1c(I)c(CO)c(I)c(C(=O)N(CCO)CCO)c1I)C(O)CO (stereo not drawn) [Example 42, 5-(2,3-Dihydroxypropionylamino)-3-hydroxymethyl-N,N-bis(2-hydroxyethyl)-2,4,6-triiodobenzamide]",Viscosity at 400 mgI/ml (CALCULATED),,12.8 mPas
same,Viscosity 20° C.,concentration 488 mgI/ml,34 mPas
"O=C(c1c(I)c(CO)c(I)c(N(CCO)C(=O)C(O)CO)c1I)N(CCO)CCO (stereo not drawn) [Example 43, 5-[N′-(2-Hydroxyethyl)-2,3-dihydroxypropionylamino]-3-hydroxy-methyl-N,N-bis (2-hydroxyethyl)-2,4,6-triiodobenzamide]",Viscosity at 400 mgI/ml (CALCULATED),,14.2 mPas
same,Viscosity 20° C.,concentration 488 mgI/ml,42 mPas
"CN(CC(O)CO)C(=O)c1c(I)c(CCO)c(I)c(NC(=O)CO)c1I (stereo not drawn) [Example 44, 5-Hydroxyacetamido-3-hydroxyethyl-N-methyl-N-(2,3-dihydroxy-propyl)-2,4,6-triiodobenzamide]",Viscosity at 400 mgI/ml (CALCULATED),,10.8 mPas
same,Viscosity 20° C.,concentration 481 mgI/ml,24 mPas
"CN(CC(O)CO)C(=O)c1c(I)c(CO)c(I)c(N(CCO)C(=O)CO)c1I (stereo not drawn) [Example 45, 5-[N′-(2-Hydroxyethyl)-hydroxyacetamido]-3-hydroxymethyl-N-methyl-N-(2,3-dihydroxypropyl)-2,4,6-triiodobenzamide]",Viscosity at 400 mgI/ml (CALCULATED),,13.9 mPas
same,Viscosity 20° C.,concentration 483 mgI/ml,32 mPas
